Assay results: US10988482B2, “IRAK4 inhibitor and use thereof” (BEIJING HANMI PHARMACEUTICAL CO., LTD., priority 2015, dated 2021)

Key:
[1] = target: IRAK4 kinase (Homo sapiens (Human), UniProt Q9NWZ3); assay: IRAK4 kinase activity inhibition assay (ADP-Glo); type: biochemical; conditions: 10 μM ATP, MBP substrate, 60 min at 25° C.
Protocol: IRAK4 kinase (purchased from Life Technologies, Cat. No.: PR5612U) was diluted to 2 folds of the final concentration (the final concentration is 0.76 ng/μL) with reaction buffer (40 mM Tris-HCl, pH 7.5; 20 mM MgCl2; 0.1 mg/mL BSA; 1 mM DTT), and added to a 384-well plate at 5 μL/well. The test drugs were 10-fold serial diluted from 10 μM to set six concentration points and added to the test wells of the 384-well plate at 2.5 μL/well. After incubation for 10 min at 25° C., 10 μM of ATP and […] of an enzyme reaction substrate, myelin basic protein MBP (purchased from SignalChem, Cat. No.: M42-51N) were added at 2.5 µL/well, and reacted at 25° C. for 60 minutes. After the reaction was completed, the kinase activity assay was performed using the ADP-Glo™ kinase assay kit (purchased from Promega, Cat. No.: V9102) according to the manufacture's instruction, i.e., 10 μL of ADP-Glo reaction reagent was first added and reacted at 25° C. for 40 minutes, 10 μL of the solution to be tested was taken and mixed with 10 μL of ADP-Glo detection reagent, and reacted at 25° C. for 30 minutes. The kinase activity was then detected, and the IC50 values of the test drugs were calculated.

[2] = test system: TNF-α secretion in THP-1 cells; assay: LPS-induced TNF-α secretion assay in THP-1 cells (ELISA); type: cell-based; conditions: Homo sapiens; LPS-induced TNF-α secretion in THP-1 cells, 2 hours pre-incubation, 24 hours LPS
Protocol: The compounds of Examples 9, 98 and 105 of the invention were tested in LPS-induced TNF-α secretion assay in THP-1 cells. Human THP-1 cells (purchased from ATCC, Cat. No.: TIB-202) were cultured in RPMI-1640 medium (purchased from Gibco, Cat. No.: 22440) containing 10% fetal bovine serum (purchased from Gibco, Cat. No.: 10099-141) and 0.05 mM of 2-mercaptoethanol (purchased from Gibco, Cat. No.: 21985). The THP-1 cells in logarithmic growth phase were seeded in a 96-well plate at 2×10^5 cells/well/100 μL. The test samples were diluted with RMPI-1640 medium to 4 folds of the final concentration (5-fold dilutions starting from 10 μM, setting 6 drug concentrations, and testing in replicate wells at each concentration). The diluted test samples were added to the test wells seeded with cells at 50 μL/well, and RMPI-1640 medium (50 μL) was separately added to positive control and negative control wells. The 96-well plate was placed in the incubator at 37° C., 5% CO2 and pre-incubated for 2 hours. The 96-well plate was taken out, and 400 ng/mL of LPS (50 μL) (purchased from Sigma, Cat. No.: L6529-1MG) was added to each well of the test wells and the positive control wells, and RMPI-1640 medium (50 μL) was added to the negative control wells. After incubation in the incubator at 37° C., 5% CO2 for 24 hours, the cell culture supernatant was taken and determined for the content of TNF-α in the supernatant using a human TNF-α ELISA kit (purchased from DKW, Cat. No.: 12-1720-096).

[3] = test system: TMD-8 cells; assay: TMD-8 cell growth inhibition assay (CCK-8); type: cell-based; conditions: Homo sapiens, TMD8, 96 hours
Protocol: The compounds of Examples 9, 98 and 105 of the invention were tested in TMD-8 cell growth inhibition assay. TMD-8 cells (available from Korea Hanmi Research Center) were cultured in RMPI-1640 medium (purchased from Gibco, Cat. No.: 22440) containing 10% fetal bovine serum (purchased from Gibco, Cat. No.: 10099-141). The TMD-8 cells in logarithmic growth phase were seeded in a 96-well plate at 20,000 cells/well/100 μL, and RMPI-1640 medium (100 μL) was added into blank control wells. The test samples were diluted with RMPI-1640 medium to 2 folds of the final concentration (10-fold dilutions starting from 10 μM, setting 6 drug concentrations, and testing in replicate wells at each concentration). The diluted test samples were added to test wells seeded with cells at 100 μL/well, and RMPI-1640 medium (100 μL) was separately added to the positive control wells and the blank control wells. The 96-well plate was placed in the incubator and reacted at 37° C., 5% CO2 for 96 hours. After the reaction was completed, the 96-well plate was taken from the incubator and to each well was added CCK-8 (100 μL) (purchased from DOJINDO, Cat. No.: CK04-11). Then the 96-well plate was put back to the incubator and incubated for another 2 hours. The light absorbance was measured at 450 nm, and the IC50 values were calculated therefrom.

Sequence of IRAK4 kinase (Q9NWZ3 whole entry): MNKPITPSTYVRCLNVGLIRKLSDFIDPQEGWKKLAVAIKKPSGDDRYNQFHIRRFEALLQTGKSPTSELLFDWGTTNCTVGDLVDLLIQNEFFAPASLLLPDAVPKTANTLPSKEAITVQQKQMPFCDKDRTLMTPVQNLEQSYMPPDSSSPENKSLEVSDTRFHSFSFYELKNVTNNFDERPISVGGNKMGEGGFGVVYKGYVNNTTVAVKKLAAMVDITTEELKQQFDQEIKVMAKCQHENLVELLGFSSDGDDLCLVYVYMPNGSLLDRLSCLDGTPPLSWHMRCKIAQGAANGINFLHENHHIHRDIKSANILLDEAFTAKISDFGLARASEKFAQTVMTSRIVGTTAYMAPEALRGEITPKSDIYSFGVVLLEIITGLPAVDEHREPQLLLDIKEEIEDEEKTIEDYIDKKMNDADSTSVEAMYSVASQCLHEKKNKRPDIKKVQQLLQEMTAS

Row | IC50 [1] [µM] | IC50 [2] [µM] | SMILES | IC50 [3] [µM]
1 | ≤ 0.1 | ≤ 0.5 | Cc1cc(Nc2nc(N[C@H]3CC[C@](C)(O)CC3)c3sccc3n2)sn1 [Compound 9] | ≤ 0.5
2 | 1 to 10 |  | C[C@]1(O)CC[C@H](Nc2nc(Nc3cccc(CC(N)=O)c3)nc3ccsc23)CC1 [Compound 72] | 
3 | 0.1 to 1 |  | CN1CCN(c2cccc(Nc3nc(N[C@H]4CC[C@](C)(O)CC4)c4sccc4n3)c2)CC1 [Compound 73] | 
4 | 1 to 10 |  | CN1CCN(c2ccc(Nc3nc(N[C@H]4CC[C@](C)(O)CC4)c4sccc4n3)cc2)CC1 [Compound 74] | 
5 | 1 to 10 |  | CN1CCN(Cc2cc(Nc3nc(N[C@H]4CC[C@](C)(O)CC4)c4sccc4n3)sn2)CC1 [Compound 75] | 
6 | 0.1 to 1 |  | Cc1cc(Nc2nc(N[C@H]3CC[C@H](O)CC3)c3occc3n2)sn1 [Compound 76, trans-4-((2-((3-methylisothiazol-5-yl)amino)furo[3,2-d]pyrimidin-4-yl)amino)cyclohexanol] | 
7 | ≤ 0.1 |  | Cc1cc(Nc2nc(N[C@H]3C[C@H](N)C3)c3sccc3n2)sn1 [Compound 77, N^4-(trans-3-aminocyclobutyl)-N^2-(3-methylisothiazol-5-yl)thieno[3,2-d]pyrimidine-2,4-diamine] | 
8 | ≤ 0.1 |  | Cc1cc(Nc2nc(N[C@H]3C[C@@H](N)C3)c3sccc3n2)sn1 [Compound 78] | 
9 | ≤ 0.1 |  | Cc1cc(Nc2nc(N[C@H]3CC[C@@H](N)CC3)c3sccc3n2)sn1 [Compound 79] | 
10 | 0.1 to 1 |  | Cc1cc(Nc2nc(N[C@H]3CC[C@H](N)CC3)c3sccc3n2)sn1 [Compound 80] | 
11 | 0.1 to 1 |  | Cc1cc(Nc2nc(O[C@H]3CC[C@@H](N)C3)c3sccc3n2)sn1 [Compound 81] | 
12 | 0.1 to 1 |  | Cc1cc(Nc2nc(O[C@H]3CC[C@@H](N)CC3)c3sccc3n2)sn1 [Compound 82] | 
13 | ≤ 0.1 |  | Cc1cc(Nc2nc(O[C@H]3CC[C@H](N)CC3)c3sccc3n2)sn1 [Compound 83] | 
14 | 0.1 to 1 |  | Cn1cc(Nc2nc(N[C@H]3CC[C@@H](N)CC3)c3sccc3n2)cn1 [Compound 84] | 
15 | 0.1 to 1 |  | Cn1cc(Nc2nc(O[C@H]3CC[C@@H](N)C3)c3sccc3n2)cn1 [Compound 85] | 
16 | 0.1 to 1 |  | CN[C@H]1C[C@H](Nc2nc(Nc3cc(C)ns3)nc3ccsc23)C1 [Compound 86, N^4-(trans-3-(methylamino)cyclobutyl)-N^2-(3-methylisothiazol-5-yl)thieno[3,2-d]pyrimidine-2,4-diamine] | 
17 | 0.1 to 1 |  | CN[C@H]1C[C@@H](Nc2nc(Nc3cc(C)ns3)nc3ccsc23)C1 [Compound 87] | 
18 | 0.1 to 1 |  | CN[C@H]1CC[C@@H](Nc2nc(Nc3cc(C)ns3)nc3ccsc23)CC1 [Compound 88] | 
19 | 0.1 to 1 |  | CN[C@H]1CC[C@H](Nc2nc(Nc3cc(C)ns3)nc3ccsc23)CC1 [Compound 89] | 

Row | IC50 [1] [µM] | IC50 [2] [µM] | SMILES | IC50 [3] [µM]
20 | 0.1 to 1 |  | CN[C@H]1CC[C@@H](Oc2nc(Nc3cc(C)ns3)nc3ccsc23)CC1 [Compound 90] | 
21 | ≤ 0.1 |  | Cc1cc(Nc2nc(N[C@H]3CC[C@H](N(C)C)CC3)c3sccc3n2)sn1 [Compound 91, N^4-(trans-4-(dimethylamino)cyclohexyl)-N^2-(3-methylisothiazol-5-yl)thieno[3,2-d]pyrimidine-2,4-diamine] | 
22 | 0.1 to 1 |  | Cc1cc(Nc2nc(N[C@H]3CC[C@@H](N(C)C)CC3)c3sccc3n2)sn1 [Compound 92] | 
23 | 0.1 to 1 |  | CCN(CC)[C@H]1CC[C@@H](Nc2nc(Nc3cc(C)ns3)nc3ccsc23)CC1 [Compound 93] | 
24 | ≤ 0.1 |  | CCN(CC)[C@H]1CC[C@H](Nc2nc(Nc3cc(C)ns3)nc3ccsc23)CC1 [Compound 94] | 
25 | ≤ 0.1 |  | Cc1cc(Nc2nc(O[C@H]3CC[C@@H](N(C)C)CC3)c3sccc3n2)sn1 [Compound 95] | 
26 | ≤ 0.1 |  | Cc1cc(Nc2nc(O[C@H]3CC[C@H](N(C)C)CC3)c3sccc3n2)sn1 [Compound 96] | 
27 | ≤ 0.1 |  | Cc1cc(Nc2nc(N[C@H]3CC[C@H](N(CCO)CCO)CC3)c3sccc3n2)sn1 [Compound 97] | 
28 | ≤ 0.1 | ≤ 0.5 | Cc1cc(Nc2nc(N[C@H]3CC[C@H](N4CCCCC4)CC3)c3sccc3n2)sn1 [Compound 98, N^4-(trans-4-(piperidin-1-yl)cyclohexyl)-N^2-(3-methylisothiazol-5-yl)thieno[3,2-d]pyrimidine-2,4-diamine] | ≤ 0.5
29 | ≤ 0.1 |  | Cc1cc(Nc2nc(N[C@H]3CC[C@H](N4CCCC4)CC3)c3sccc3n2)sn1 [Compound 99] | 
30 | ≤ 0.1 |  | Cc1cc(Nc2nc(N[C@H]3CC[C@H](N4CCOCC4)CC3)c3sccc3n2)sn1 [Compound 100] | 
31 | ≤ 0.1 |  | Cc1cc(Nc2nc(O[C@H]3CC[C@H](N4CCCC4)CC3)c3sccc3n2)sn1 [Compound 101] | 
32 | ≤ 0.1 |  | Cc1cc(Nc2nc(O[C@H]3CC[C@H](N4CCCCC4)CC3)c3sccc3n2)sn1 [Compound 102] | 
33 | 0.1 to 1 |  | Cc1cc(Nc2nc(O[C@H]3CC[C@H](N4CCOCC4)CC3)c3sccc3n2)sn1 [Compound 103] | 
34 | ≤ 0.1 |  | Cc1cc(Nc2nc(N[C@H]3CC[C@H](O)CC3)c3c(ccn3C)n2)sn1 [Compound 104, trans-4-((5-methyl-2-((3-methylisothiazol-5-yl)amino)-5H-pyrrolo[3,2-d]pyrimidin-4-yl)amino)cyclohexanol] | 
35 | ≤ 0.1 | ≤ 0.5 | COCCCn1ccc2nc(Nc3cc(C)ns3)nc(N[C@H]3CC[C@H](N4CCCCC4)CC3)c21 [Compound 105, 5-(3-methoxylpropyl)-N^4-(trans-4-(piperidin-1-yl)cyclohexyl)-N^2-(3-methylisothiazol-5-yl)-5H-pyrrolo[3,2-d]pyrimidine-2,4-diamine] | ≤ 0.5
36 | 0.1 to 1 |  | Cc1cc(Nc2nc(N[C@H]3CC[C@](C)(O)CC3)c3c(ccn3Cc3cccnc3)n2)sn1 [Compound 106] | 
37 | ≤ 0.1 |  | Cc1cc(Nc2nc(N[C@H]3CC[C@H](N4CCCCC4)CC3)c3c(ccn3CCCC#N)n2)sn1 [Compound 107] | 
38 | ≤ 0.1 |  | Cc1cc(Nc2nc(N[C@H]3CC[C@H](N4CCCCC4)CC3)c3c(ccn3CCC(N)=O)n2)sn1 [Compound 108] | 

Row | SMILES | IC50 [1] [µM] | IC50 [2] [µM] | IC50 [3] [µM]
39 | CN1CCC(N(C)c2ccc(Nc3nc(N[C@H]4CC[C@H](O)CC4)c4sccc4n3)cc2)CC1 [Compound 70] | 0.1 to 1 |  | 
